Our source for the Efficacy, logP and protection values is US9375004B2 (Bayer Intellectual Property GmbH, priority 2010, dated 2016).

One may read the logP as a log measure of how a compound divides between an organic and an aqueous phase. The low end stands for a more hydrophilic compound, the high end for a more lipophilic compound.

One data set concerns Alternaria solani. Description: Alternaria test (tomato)/preventive. Particulars: 500 ppm, preventive, evaluated 7 days after inoculation. The format is in vivo.
Data set [1] in a line: logP by HPLC on reversed-phase column (EEC Directive 79/831 Annex V.A8). Particulars: EEC Directive 79/831 Annex V.A8.
The next data set concerns Puccinia triticina. The experiment in a line: Puccinia triticina-test (wheat)/preventive. The format is in vivo. Particulars: 500 ppm, preventive, evaluated 8 days after inoculation.
The test system of data set [2] is Fusarium nivale (var. majus). The experiment in a line: Fusarium nivale (var. majus)-test (wheat)/preventive. To be noted: for Efficacy: preventive, evaluated 5 days after inoculation; for protection: dose of 250 ppm and 500 ppm of active ingredient.
Experimental: Fusarium Nivale (Var. Majus)-Test (Wheat)/Preventive
Solvent: 49 parts by weight of N,N-dimethylacetamide
Emulsifier: 1 part by weight of alkylaryl polyglycol ether
After the spray coating has been dried, the plants are slightly injured by using a sandblast and afterwards they are sprayed with a conidia suspension of Fusarium nivale (var. majus).
The plants are placed in the greenhouse under a translucent incubation cabinet at a temperature of approximately 10° C. and a relative atmospheric humidity of approximately 100%.
The test is evaluated 5 days after the inoculation.
The mark [3] stands for this setting: HPLC on reversed-phase column (C 18).
Where [4] appears, read: HPLC on a reversed-phase column (C 18).

`CCC(CC(C)C)c1ccccc1NC(=O)c1c(C(F)F)nn(C)c1F` (centres unmarked) [Example 20] had an Efficacy with Alternaria solani of 90%. Further, the logP in data set [1] (setting [3]) is reported as 4.28.

`COC(C)(C)C#Cc1ccccc1NC(=O)c1c(C(F)F)nn(C)c1F` [Example 19] yielded an Efficacy in the data set with Alternaria solani of 80%. The compound further yielded a logP in data set [1] (setting [3]) of 3.34.

For the compound `Cn1nc(C(F)F)c(C(=S)Nc2ccccc2CC[Si](C)(C)C)c1Cl` [Example 25], the results for the Efficacy (in the data set with Puccinia triticina; in data set [2] (500 ppm)) were 100% and 88%, respectively. Further, the logP in data set [1] (setting [3]) was determined as 4.56.

Regarding `CC(C)Oc1cccc(NC(=O)c2c(C(F)F)nn(C)c2F)c1` [Example 170], the Efficacy is on record as 100% with Puccinia triticina and 86% in data set [2] (500 ppm). In data set [1] (setting [3]), this compound returned a logP of 2.88.

Regarding `CCCOc1cccc(NC(=O)c2c(C(F)F)nn(C)c2Cl)c1` [Example 174], the Efficacy with Alternaria solani is reported as 70%. The logP in data set [1] (setting [3]) is recorded as 3.25.

Turning to `Cn1nc(C(F)F)c(C(=O)Nc2ccc3c(c2)CCC3)c1Cl` [Example 193], the Efficacy in the data set on Puccinia triticina stood at 100%; in data set [2] (500 ppm) it was 75%. The same compound had a logP in data set [1] (setting [3]) of 3.17.

Regarding `Cc1cc(C)c(-c2cccc(NC(=O)c3c(C(F)F)nn(C)c3Cl)c2)c(C)c1` [Example 212], the Efficacy was 86% in the data set with Puccinia triticina and 75% in data set [2] (500 ppm). The logP in data set [1] (setting [3]) is 4.56.

For `CC(C)C1C2CCC1c1c(NC(=O)c3cn(C)nc3C(F)F)cccc12` (stereo not drawn) [15.202 (syn/anti 9/1) from WO-2004/035589] [3-(difluoromethyl)-N-(9-isopropyl-1,2,3,4-tetrahydro-1,4-methanonaphthalen-5-yl)-1-methyl-1H-pyrazole-4-carboxamide, reference compound], the Efficacy in data set [2] (250 ppm) and in data set [2] (500 ppm) was 50% each time.

`CC(C)C1C2CCC1c1c(NC(=O)c3cn(C)nc3C(F)F)cccc12` (centres unmarked) [Example 15.202, 3-(difluoromethyl)-N-(9-isopropyl-1,2,3,4-tetrahydro-1,4-methanonaphthalen-5-yl)-1-methyl-1H-pyrazole-4-carboxamide, reference compound]: the protection entry in data set [2] was “average (less than 50%) protection to good (at least 70%) protection”.

Compound `Cn1nc(C(F)F)c(C(=O)Nc2cccc(OCc3ccccc3)c2)c1F` [compound 252] gave a logP in data set [1] (setting [4]) of 3.35.

The compound `Cn1nc(C(F)F)c(C(=O)Nc2ccccc2Br)c1F` [compound 43] had a logP in data set [1] (setting [3]) of 2.82.

For the compound `Cn1nc(C(F)F)c(C(=O)Nc2ccccc2-c2ccc(F)c(Cl)c2)c1F` [compound 102], the logP in data set [1] (setting [3]) is reported as 3.60.

In the case of `Cn1nc(C(F)F)c(C(=O)Nc2cccc(OCC(C)(C)C)c2)c1Cl` [compound 183], in data set [1] (setting [3]), the logP is 4.19.

Compound `CC1CCCC(c2ccccc2NC(=O)c2c(C(F)F)nn(C)c2F)C1` (centres unmarked) [compound 52] showed a logP in data set [1] (setting [3]) of 3.23.

Take `Cn1nc(C(F)F)c(C(=O)Nc2ccccc2-c2ccc(OC(F)(F)F)cc2)c1Cl` [compound 144]: the logP in data set [1] (setting [3]) stood at 4.19.

The compound `Cn1nc(C(F)F)c(C(=O)Nc2cccc(-c3ccc(OC(F)(F)F)cc3)c2)c1Cl` [compound 244] displayed a logP in data set [1] (setting [4]) of 4.34.

`CC(C)=CCc1ccccc1NC(=O)c1c(C(F)F)nn(C)c1F` [compound 6] gave a logP in data set [1] (setting [3]) of 3.20.

The compound `Cn1nc(C(F)F)c(C(=O)Nc2ccccc2SC(F)(F)F)c1F` [compound 36] showed a logP in data set [1] (setting [3]) of 3.37. The logP values of the last two compounds are within 0.2 log units of each other.

In turn, `Cn1nc(C(F)F)c(C(=O)Nc2cccc(-c3ccc(Cl)cc3Cl)c2)c1Cl` [compound 230] showed a logP in data set [1] (setting [3]) of 4.39.

`COCCOc1cccc(NC(=O)c2c(C(F)F)nn(C)c2F)c1` [compound 180]: the logP in data set [1] (setting [3]) came out at 2.15.

In turn, `Cn1nc(C(F)F)c(C(=O)Nc2ccc3c(c2)OC(F)(F)O3)c1Cl` [compound 198] returned a logP in data set [1] (setting [3]) of 3.11.

For the compound `Cn1nc(C(F)F)c(C(=O)Nc2ccc(-c3cc(Cl)cc(Cl)c3)cc2)c1F` [compound 266], the lipophilicity (logP) in data set [1] (setting [4]) amounted to 4.51.

In data set [1] (setting [3]), `Cn1nc(C(F)F)c(C(=S)Nc2ccccc2C2CC2C2CC2)c1Cl` (single isomer, unassigned) [Example 50] came in with a logP of 3.81.

Consider `Cn1nc(C(F)F)c(C(=O)Nc2cccc(Cl)c2SCC(F)F)c1F` [compound 33], for which the lipophilicity (logP) in data set [1] (setting [3]) worked out at 3.53.

Regarding `CCC(C)Oc1cc(NC(=O)c2c(C(F)F)nn(C)c2Cl)ccc1C` (centres unmarked) [compound 178], the logP in data set [1] (setting [3]) worked out at 4.06.

Turning to `Cc1ccccc1-c1cccc(NC(=O)c2c(C(F)F)nn(C)c2Cl)c1` [compound 202], the logP in data set [1] (setting [3]) is recorded as 3.83.

On to `C/C(=N\OC(C)(C)C)c1ccc(-c2ccccc2NC(=O)c2c(C(F)F)nn(C)c2Cl)cc1` [compound 157], for which the logP in data set [1] (setting [3]) is 5.54.

For `Cc1nn(C)c(F)c1C(=O)Nc1ccccc1C(C)CC(C)C` (centres unmarked) [I-21 from WO-2003/010149, 5-fluoro-1,3-dimethyl-N-[2-(4-methylpentan-2-yl)phenyl]-1H-pyrazole-4-carboxamide, reference compound], the Efficacy was 20% in data set [2] (250 ppm) and 40% in data set [2] (500 ppm). In addition, the protection result in data set [2] was “less than 40%”.

`CC(C)COc1ccc(-c2cccc(NC(=O)c3c(C(F)F)nn(C)c3Cl)c2)cc1` [compound 236] had a logP in data set [1] (setting [3]) of 4.83.

As for `Cn1nc(C(F)F)c(C(=O)Nc2ccccc2SCC(F)(F)F)c1F` [compound 37], in data set [1] (setting [3]), the logP was determined as 3.29.

Take `Cn1nc(C(F)F)c(C(=O)Nc2cccc(-c3ccc([Si](C)(C)C)cc3)c2)c1Cl` [compound 240]: in data set [1] (setting [3]), the logP was found to be 5.25.

As for `Cc1ccccc1Oc1ccccc1NC(=O)c1c(C(F)F)nn(C)c1Cl` [compound 161], the logP in data set [1] (setting [3]) was 4.29.

In turn, `Cn1nc(C(F)F)c(C(=O)Nc2cccc(-c3ccc(F)cc3)c2)c1Cl` [compound 204] showed a logP in data set [1] (setting [3]) of 3.59.

In data set [1] (setting [3]), `Cn1nc(C(F)F)c(C(=O)Nc2cccc(-c3cc(F)cc(F)c3)c2)c1F` [compound 209] displayed a logP of 3.62.

For the compound `Cn1nc(C(F)F)c(C(=O)Nc2cccc(-c3ccc([Si](C)(C)C)cc3)c2)c1F` [compound 239], the logP in data set [1] (setting [3]) was found to be 5.03.

`CO/N=C(\C)c1ccc(-c2ccccc2NC(=O)c2c(C(F)F)nn(C)c2F)cc1` [compound 129]: the logP in data set [1] (setting [3]) is listed as 3.78.

As to `Cn1nc(C(F)F)c(C(=O)Nc2ccc3c(c2)OC(F)(F)O3)c1F` [compound 197], in data set [1] (setting [3]), the logP is on record as 2.94.

Take `Cn1nc(C(F)F)c(C(=O)Nc2ccccc2-c2ccc(F)c(Cl)c2)c1Cl` [compound 103]: the log partition coefficient (logP) in data set [1] (setting [3]) came to 3.85.

In the case of `CO/N=C(\C)c1ccc(-c2cccc(NC(=O)c3c(C(F)F)nn(C)c3F)c2)cc1` [compound 233], the logP in data set [1] (setting [3]) is reported as 3.89.

The compound `CCCOc1cccc(NC(=O)c2c(C(F)F)nn(C)c2F)c1` [compound 175] had a logP in data set [1] (setting [3]) of 3.04.

`Cn1nc(C(F)F)c(C(=O)Nc2ccccc2Sc2ccc(Cl)cc2)c1F` [compound 164] showed a logP in data set [1] (setting [3]) of 4.34.

On to `Cn1nc(C(F)F)c(C(=O)Nc2ccc(-c3ccccc3)cc2)c1F` [compound 264], for which, in data set [1] (setting [4]), the logP is recorded as 3.33.

For `Cn1cc(C(=O)Nc2cccc3c2C2CCC3C2=C(Cl)Cl)c(C(F)F)n1` (centres unmarked) [A1.1 from WO-2008/131901, N-[9-(dichloromethylene)-1,2,3,4-tetrahydro-1,4-methanonaphthalen-5-yl]-3-(difluoromethyl)-1-methyl-1H-pyrazole-4-carboxamide, reference compound], the Efficacy worked out at 75% in data set [2] (250 ppm) and 88% in data set [2] (500 ppm). Besides, the protection result in data set [2] is “at least 70%”.

`Cn1nc(C(F)F)c(C(=O)Nc2cccc3c2CCCC3)c1Cl` [compound 57] came in with a logP in data set [1] (setting [3]) of 3.31.

Consider `CC(C)c1cccc(-c2ccccc2NC(=O)c2c(C(F)F)nn(C)c2Cl)c1` [compound 95], for which the logP in data set [1] (setting [3]) was 4.76.

`Cn1nc(C(F)F)c(C(=O)Nc2ccccc2-c2cccc(OC(F)(F)F)c2)c1F` [compound 142] returned a logP in data set [1] (setting [3]) of 3.83.

In the case of `CC(C)C1C2CCC1c1c(NC(=O)c3cn(C)nc3C(F)F)cccc12` (stereo not drawn) [15.202 (syn/anti 3/7) from WO-2004/035589] [3-(difluoromethyl)-N-(9-isopropyl-1,2,3,4-tetrahydro-1,4-methanonaphthalen-5-yl)-1-methyl-1H-pyrazole-4-carboxamide, reference compound], the values for the Efficacy in data set [2] (250 ppm) and in data set [2] (500 ppm) were 50% and 83%, respectively.

In data set [1] (setting [3]), `Cn1nc(C(F)F)c(C(=O)Nc2cccc3c2OCCO3)c1Cl` [compound 58] returned a logP of 2.70.

Turning to `Cn1nc(C(F)F)c(C(=O)Nc2ccccc2-c2ccc(OC(F)(F)F)cc2)c1F` [compound 145], the logP in data set [1] (setting [3]) is 3.92.

With `Cc1cc(C)cc(-c2ccccc2NC(=O)c2c(C(F)F)nn(C)c2Cl)c1` [compound 82], the logP in data set [1] (setting [3]) is 4.51.

Regarding `CC(C)COc1ccc(-c2ccccc2NC(=O)c2c(C(F)F)nn(C)c2Cl)cc1` [compound 135], in data set [1] (setting [3]), the logP came out at 4.96.

In data set [1] (setting [3]), `CC(C)Oc1ccc(-c2cccc(NC(=O)c3c(C(F)F)nn(C)c3Cl)c2)cc1` [compound 224] had a logP of 4.19.

Take `Cn1cc(C(=O)Nc2ccccc2C2CC2C2CC2)c(C(F)F)n1` (centres unmarked) [2.34 from WO-2003/074491, N-{2-[1,1′-bi(cyclopropyl)-2-yl]phenyl}-3-(difluoromethyl)-1-methyl-1H-pyrazole-4-carboxamide, reference compound]: the Efficacy in data set [2] (500 ppm) is recorded as 57%; in data set [2] (500 ppm, listed as 2.34), “less than 60%”.

Take `CC(C)O/N=C/c1ccc(-c2cccc(NC(=O)c3c(C(F)F)nn(C)c3Cl)c2)cc1` [compound 246]: the logP in data set [1] (setting [4]) came to 4.66.

In the case of `Cn1nc(C(F)F)c(C(=O)Nc2cccc(-c3ccc(C(C)(C)C)cc3)c2)c1F` [compound 219], the logP in data set [1] (setting [3]) amounted to 4.73.

With `Cn1nc(C(F)F)c(C(=O)Nc2cccc3c2OC(F)(F)O3)c1F` [compound 62], the logP in data set [1] (setting [3]) is reported as 2.77.
